Converted amounts (≈) assume the structure as drawn. “And” between values parts separate entries of the source, which are not always exact repeats. Identical values can stand only once. Like-named read-outs stand apart in the source and are kept apart here.
Assays:
[1] = test system: Streptococcus spp. clinical isolates; experiment: MIC distribution against clinical isolates; format: cell-based
From the text: (n=19 S. pyogenes, n=20 S. agalactiae and n=20 Viridans group Streptococcus) clinical isolates (μg/mL).
(§1) As used herein, “minimum inhibitory concentration” or “MIC” refers to the lowest concentration of an antimicrobial agent, for example, an antimicrobial agent as described herein, required to inhibit the growth of an organism. […] “MIC90” represents the MIC value at which ≥90% of the strains within a test population are inhibited; the 90th percentile.
(§2) Many susceptibility testing methods are known in the art and can be used as described herein (see, e.g., Jorgensen and Ferraro (2009) Clinical Infectious Diseases 49:1749-1755; and Maurer et al. (2017) Infectious Disease Reports 9:6839; the entire contents of each of the foregoing are incorporated herein by reference). For example, antimicrobial susceptibility can be determined using conventional culture based methods such as the broth or agar dilution test. In these dilution tests, the bacterial isolate of interest is inoculated onto different media that include serial dilutions of an antimicrobial agent, and incubated under appropriate conditions (e.g., overnight at 37° C.) to allow for growth to occur. Following the incubation period, the media is examined to determine bacterial growth. The lowest concentration of antibiotic that prevents growth represents the minimal inhibitory concentration (MIC). Broth dilution tests can be miniaturized and mechanized allowing for reproducibility and high throughput.

Streptococcus pyogenes = experiment: Broth microdilution MIC, 19 clinical isolates; format: cell-based
Procedure: (§3) Minimal inhibitory concentration (MIC) values were determined by broth microdilution or agar dilution in accordance with guidelines from the Clinical and Laboratory Standards Institute (CLSI; (1) “Methods for Dilution Antimicrobial Susceptibility Tests for Bacteria That Grow Aerobically; Approved Standard; 11th ed.” CLSI standard M07-A11, 2018; (2) “Performance Standards for Antimicrobial Susceptibility Testing; Twenty-Eighth Informational Supplement,” CLSI document M100-S28, 2018; and (3) “Methods for Antimicrobial Susceptibility Testing of Anaerobic Bacteria; Approved Standard—Eighth Edition,” CLSI document M11-A8, 2012).
(§4) Tested aerobically by broth microdilution: • Escherichia coli, n=50 • Klebsiella spp., n=50 • Pseudomonas aeruginosa, n=50 • Streptococcus spp., n=50 • Staphylococcus aureus, n=50 • Enterococcus faecalis, n=50 • Enterobacter aerogenes, n=50 • Proteus mirabilis, n=50
(§5) Broth microdilution testing of aerobic bacteria was conducted in cation-adjusted Mueller Hinton broth (MHBII). For testing streptococci, lysed horse blood (LHB) was added to MHBII broth at a final concentration of 3%. Where LHB was used, it was added after filtering.
(§6) Broth microdilution susceptibility testing in 96-well microplates was conducted in accordance with CLSI methods (1) and (2). Automated liquid handlers were used to conduct serial dilutions and liquid transfers, including the Multidrop 384 (Labsystems, Helsinki, Finland), Biomek 2000, and the Biomek FX (Beckman Coulter, Fullerton, Calif.). All wells in columns 2 through 12 of a standard 96-well microdilution plate (Costar 3795) were filled with 150 μL of the appropriate diluent. Then, 300 μL of the test agents were added to the wells of column 1 of the plates at 100× the highest final concentration to be tested. Serial two-fold dilutions were made across the rows through column 11 using the Biomek 2000. The wells of column 12 contained no drug and served as the growth control wells. This plate served as the “mother plate” from which MIC assay plates or “daughter plates” were made.
(§7) The daughter plates were loaded with 190 μL per well of the appropriate medium using the Multidrop 384. The daughter plates were created using the Biomek FX which transferred 2 μL of drug solution from each well of a mother plate to each corresponding well of the daughter plate in a single step. A standardized inoculum of each test organism was prepared per CLSI methods (1) to equal a 0.5 McFarland standard, followed by a dilution of 1:20 for aerobes and 1:10 for anaerobes. The plates were then inoculated with 10 μL of the diluted inoculum using the Biomek 2000 from low to high drug concentration, resulting in a final concentration of approximately 5×10^5 CFU/mL per well. An un-inoculated plate was incubated in parallel for each medium for the purpose of assessing solubility of the drug in the test media.
(§8) Inoculated plates were stacked 3 or 4 high, covered with a sterile lid on the top plate, placed into boxes with CO2 planchets (streptococci) or plastic bags (all other isolates). Plates were incubated at 35° C. for 16-24 hr in ambient air for aerobes or for 42-48 hr in the anaerobic environment of the Bactron II anaerobe chamber (Sheldon Manufacturing Co.; Cornelius, Oreg.). Following incubation, the microplates were removed from the incubator and viewed from the bottom using a plate viewer. The MIC values were read and recorded as the lowest concentration of drug that inhibited visible growth of the organism as per CLSI methods (1) and (2).

Streptococcus agalactiae = experiment: Broth microdilution MIC, 20 clinical isolates; format: cell-based; details: for Mode: modal MIC
Procedure: as §3, §4, §5, §6, §7, §8

[2] = test system: Viridans group Streptococcus; experiment: Broth microdilution MIC, 15 clinical isolates; format: cell-based; details: for Mode: modal MIC
Procedure: as §3, §4, §5, §6, §7, §8

E. coli MMX 1312 = experiment: Broth microdilution MIC (time-kill study); format: cell-based, Escherichia coli
[3] = test system: Veillonella spp. clinical isolates; experiment: MIC distribution against clinical isolates; format: cell-based; details: 30 Veillonella spp. isolates
From the text: (n=19 V. parvula, n=9 Veillonella spp., n=1 Veillonella dispr., n=1 V. atypica) clinical isolates (μg/mL).
as §1, §2

[4] = MIC 0.06 μg/mL, 54 Streptococcus spp. isolates
[5] = MIC 0.5 μg/mL, 54 Streptococcus spp. isolates
[6] = MIC 2 μg/mL, 54 Streptococcus spp. isolates
[7] = MIC 4 μg/mL, 54 Streptococcus spp. isolates
[8] = MIC 8 μg/mL, 54 Streptococcus spp. isolates
[9] = 20 Streptococcus agalactiae clinical isolates
[10] = 15 Viridans group Streptococci clinical isolates
[11] = MIC 1 μg/mL, 54 Streptococcus spp. isolates
[12] = MIC 0.015 μg/mL, 54 Streptococcus spp. isolates
[13] = MIC 0.03 μg/mL, 54 Streptococcus spp. isolates

Row | Compound | Cumulative percentage of isolates inhibited at MIC [1, 4] [%] | Number of test isolates at MIC [1, 4] | Cumulative percentage of isolates inhibited at MIC [1, 6] [%] | Number of test isolates at MIC [1, 6] | Cumulative percentage of isolates inhibited at MIC [1, 7] [%] | Number of test isolates at MIC [1, 7] | MIC range (Streptococcus pyogenes) [µg/mL] | Mode (Streptococcus pyogenes) [µg/mL] | MIC range (Streptococcus agalactiae; [9]) [µg/mL] | Mode (Streptococcus agalactiae; [9]) [µg/mL] | MIC range [2, 10] [µg/mL] | Mode [2, 10] [µg/mL] | MIC (E. coli MMX 1312; E. coli MMX 1312) | MIC50 (Streptococcus pyogenes) [µg/mL] | MIC90 (Streptococcus pyogenes) [µg/mL] | MIC50 (Streptococcus agalactiae; [9]) [µg/mL] | MIC90 (Streptococcus agalactiae; [9]) [µg/mL] | MIC50 [2, 10] [µg/mL] | MIC90 [2, 10] [µg/mL] | Cumulative percentage of isolates inhibited at MIC [1, 11] [%] | also measured
1 | COc1c(N2C[C@@H]3CCCN[C@@H]3C2)c(F)cc2c(=O)c(C(=O)O)cn(C3CC3)c12 [moxifloxacin] | 24.1 | 13 | 94.4 | 2 | 98.1 | 2 | 0.06 to 0.5 | 0.12 | 0.06 to 0.25 | 0.12 | 0.06 to 8 | 0.06 |  |  |  |  |  |  |  |  | Cumulative percentage of isolates inhibited at MIC [1, 5]: 90.7%; Number of test isolates at MIC [1, 5]: 1; Cumulative percentage of isolates inhibited at MIC [1, 8]: 100.0%; Number of test isolates at MIC [1, 8]: 1; MIC50 (Streptococcus pyogenes; Streptococcus pyogenes, read-out: MIC50): 0.12 µg/mL (≈ 0.299 µM); MIC90 (Streptococcus pyogenes; Streptococcus pyogenes, read-out: MIC90): 0.25 µg/mL (≈ 0.623 µM); MIC50 (Streptococcus agalactiae; 20 Streptococcus agalactiae clinical isolates, read-out: MIC50): 0.12 µg/mL (≈ 0.299 µM); MIC90 (Streptococcus agalactiae; 20 Streptococcus agalactiae clinical isolates, read-out: MIC90): 0.12 µg/mL (≈ 0.299 µM); MIC50 ([2]; Streptococcus, 15 Viridans group Streptococci clinical isolates, read-out: MIC50): 0.12 µg/mL (≈ 0.299 µM); MIC90 ([2]; Streptococcus, 15 Viridans group Streptococci clinical isolates, read-out: MIC90): 4 µg/mL (≈ 9.96 µM)
2 | CO[C@H]1/C=C/O[C@@]2(C)Oc3c(C)c(O)c4c(O)c(c5c(nc6cc(C)ccn65)c4c3C2=O)NC(=O)/C(C)=C\C=C\[C@H](C)[C@H](O)[C@@H](C)[C@@H](O)[C@@H](C)[C@H](OC(C)=O)[C@@H]1C [rifaximin] |  |  |  |  |  |  | 0.015 to 0.25 | 0.06 | 0.12 to 0.25 | 0.12 | 0.015 to 0.1 | 0.06 | 8 µg/mL (≈ 10.2 µM) | 0.06 (≈ 0.0763 µM) | 0.25 (≈ 0.318 µM) | 0.12 (≈ 0.153 µM) | 0.12 (≈ 0.153 µM) | 0.06 (≈ 0.0763 µM) | 0.12 (≈ 0.153 µM) |  | MIC (E. coli MMX 1312; broth microdilution): 8 µg/mL (≈ 10.2 µM); Cumulative percentage of isolates inhibited at MIC ([3]; MIC 1 μg/mL): 10.0%; Number of test isolates at MIC ([3]; MIC 1 μg/mL): 1; Cumulative percentage of isolates inhibited at MIC ([3]; MIC 8 μg/mL): 93.3%; Number of test isolates at MIC ([3]; MIC 8 μg/mL): 7; MIC50 (Streptococcus agalactiae): 0.12 µg/mL (≈ 0.153 µM); MIC90 (Streptococcus agalactiae): 0.12 µg/mL (≈ 0.153 µM); MIC50 [2]: 0.06 µg/mL (≈ 0.0763 µM); MIC90 [2]: 0.12 µg/mL (≈ 0.153 µM)
3 | CN[C@H](CC(C)C)C(=O)N[C@H]1C(=O)N[C@@H](CC(N)=O)C(=O)N[C@H]2C(=O)N[C@H]3C(=O)N[C@H](C(=O)N[C@H](C(=O)O)c4cc(O)cc(O)c4-c4cc3ccc4O)[C@H](O)c3ccc(c(Cl)c3)Oc3cc2cc(c3O[C@@H]2O[C@H](CO)[C@@H](O)[C@H](O)[C@H]2O[C@H]2C[C@](C)(N)[C@H](O)[C@H](C)O2)Oc2ccc(cc2Cl)[C@H]1O [vancomycin, Vancomycin] |  |  |  |  |  |  | 0.25 to 0.5 | 0.25 | 0.25 to 1 | 0.5 | 0.25 to 1 | 0.5 |  |  |  |  |  |  |  | 100.0 | MIC (E. coli MMX 1312; Escherichia coli, MMX1312, E. coli MMX 1312, read-out: MIC): > 16 µg/mL; Cumulative percentage of isolates inhibited at MIC ([1]; listed as VAN): 50.0% and 96.3%; % S (Streptococcus pyogenes): 100%; MIC50 (Streptococcus pyogenes; Streptococcus pyogenes): 0.25 µg/mL (≈ 0.173 µM); MIC90 (Streptococcus pyogenes; Streptococcus pyogenes): 0.5 µg/mL (≈ 0.345 µM); % S (Streptococcus agalactiae; 20 Streptococcus agalactiae clinical isolates, MXF by FDA breakpoints): 100%; MIC50 (Streptococcus agalactiae; Streptococcus agalactiae): 0.5 µg/mL (≈ 0.345 µM); MIC90 (Streptococcus agalactiae; Streptococcus agalactiae): 0.5 µg/mL (≈ 0.345 µM); % S ([2]; 15 Viridans group Streptococci clinical isolates, MXF by FDA breakpoints): 100%; MIC50 ([2]; Streptococcus): 0.5 µg/mL (≈ 0.345 µM); MIC90 ([2]; Streptococcus): 0.5 µg/mL (≈ 0.345 µM)
4 | piperacillin/tazobactam [piperacillin-tazobactam] | 44.4 | 16 | 94.4 | 2 | 100.0 | 3 | 0.03 to 0.25 | 0.06 | 0.12 to 0.25 | 0.25 | 0.015 to 4 | 0.06 | 16/4 | 0.06 | 0.12 | 0.25 | 0.25 | 0.12 | 4 | 90.7 | Cumulative percentage of isolates inhibited at MIC [1, 12]: 1.9%; Number of test isolates at MIC [1, 12]: 1; Cumulative percentage of isolates inhibited at MIC [1, 13]: 14.8%; Number of test isolates at MIC [1, 13]: 7; Number of test isolates at MIC [1, 11]: 1

From patent US20210386367A1, “DEVICES AND SYSTEMS FOR GASTROINTESTINAL MICROBIOME DETECTION AND MANIPULATION” (Progenity, Inc., priority 2018, published 2021)
